Reference: patent US20230085307A1, “PYRIDAZINONE COMPOUND AND HERBICIDE” (NISSAN CHEMICAL CORPORATION, priority 2019, published 2023)

What was measured:
[1] = system: late watergrass; assay: Test Example 1: herbicidal activity, application before weed generation under submerged conditions (Table 16, symbol A); type: in vivo, late watergrass (Echinochloa oryzicola)
Outline: (§1)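 Alluvial soil was flooded to 4 cm depth, weed seeds were sown mixed and 2.5-leaf rice seedlings were transplanted. On sowing day, the compound's emulsion, diluted in water to a set dose, was applied to the water surface. Plants grew at 25–30 °C and were scored 0–5 after three weeks.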

[2] = system: Japanese bulrush; assay: Test Example 1: herbicidal activity, application before weed generation under submerged conditions (Table 16, symbol B); type: in vivo, Japanese bulrush (Schoenoplectus juncoides)
Outline: as §1

[3] = system: oval-leafed pondweed; assay: Test Example 1: herbicidal activity, application before weed generation under submerged conditions (Table 16, symbol C); type: in vivo, oval-leafed pondweed (Monochoria vaginalis)
Outline: as §1

[4] = system: barnyard grass; assay: Test Example 3: herbicidal effect by foliage application, Wagner pot (Table 18, symbol H); type: in vivo, barnyard grass (Echinochloa crus-galli); conditions: 320 g/ha
Outline: (§2)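 Plants were sown in alluvial soil held under 0.1–0.5 cm standing water and grown 14 days in a greenhouse at 25–30 °C. An emulsifiable formulation, water-diluted to the set dose, was then sprayed onto the foliage, and effects were scored three weeks later using previously defined criteria.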

[5] = system: Chinese sprangletop; assay: Test Example 3: herbicidal effect by foliage application, Wagner pot (Table 18, symbol D); type: in vivo, chinese sprangletop (Leptochloa chinensis); conditions: 320 g/ha
Outline: as §2

[6] = system: southern crabgrass; assay: Test Example 4: herbicidal effect by soil treatment (Table 19, symbol F); type: in vivo, southern crabgrass (Digitaria ciliaris)
Outline: (§3)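 Seeds were sown in sterilized diluvial soil and covered with about 1.5 cm of soil. An emulsion formulation diluted with water to a predetermined herbicide amount was sprayed evenly onto the soil surface. Plants grew in a greenhouse at 25° C. to 30° C., and the effect was scored three weeks after application using criteria from an earlier test.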

[7] = system: green foxtail; assay: Test Example 4: herbicidal effect by soil treatment (Table 19, symbol G); type: in vivo, green foxtail (Setaria viridis)
Outline: as §3

[8] = system: barnyard grass; assay: Test Example 4: herbicidal effect by soil treatment (Table 19, symbol H); type: in vivo, barnyard grass (Echinochloa crus-galli)
Outline: as §3

[9] = system: wild oat; assay: Test Example 4: herbicidal effect by soil treatment (Table 19, symbol I); type: in vivo, wild oat (Avena fatua)
Outline: as §3

[10] = system: blackgrass; assay: Test Example 4: herbicidal effect by soil treatment (Table 19, symbol J); type: in vivo, blackgrass (Alopecurus myosuroides)
Outline: as §3

[11] = system: Italian ryegrass; assay: Test Example 4: herbicidal effect by soil treatment (Table 19, symbol K); type: in vivo, Italian ryegrass (Lolium multiflorum)
Outline: as §3

[12] = system: windgrass; assay: Test Example 4: herbicidal effect by soil treatment (Table 19, symbol L); type: in vivo, windgrass (Apera spica-venti)
Outline: as §3

[13] = system: velvetleaf; assay: Test Example 4: herbicidal effect by soil treatment (Table 19, symbol M); type: in vivo, velvetleaf (Abutilon theophrasti)
Outline: as §3

[14] = system: redroot pigweed; assay: Test Example 4: herbicidal effect by soil treatment (Table 19, symbol N); type: in vivo, redroot pigweed (Amaranthus retroflexus)
Outline: as §3

[15] = system: lambsquarters; assay: Test Example 4: herbicidal effect by soil treatment (Table 19, symbol O); type: in vivo, lambsquarters (Chenopodium album)
Outline: as §3

[16] = system: chickweed; assay: Test Example 4: herbicidal effect by soil treatment (Table 19, symbol P); type: in vivo, common chickweed (Stellaria media)
Outline: as §3

[17] = system: persian speedwell; assay: Test Example 4: herbicidal effect by soil treatment (Table 19, symbol R); type: in vivo, Persian speedwell (Veronica persica)
Outline: as §3

[18] = system: southern crabgrass; assay: Test Example 5: herbicidal effect by foliage application, plastic box (Table 20, symbol F); type: in vivo, southern crabgrass (Digitaria ciliaris)
Outline: (§4)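 Plants sown in sterilized diluvial soil and grown 14 days in a greenhouse at 25° C to 30° C, then sprayed on the foliage with the compound's emulsion diluted in water to a predetermined herbicide amount. Injury to weeds and crops scored three weeks after application on a visual rating scale.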

[19] = system: green foxtail; assay: Test Example 5: herbicidal effect by foliage application, plastic box (Table 20, symbol G); type: in vivo, green foxtail (Setaria viridis)
Outline: as §4

[20] = system: barnyard grass; assay: Test Example 5: herbicidal effect by foliage application, plastic box (Table 20, symbol H); type: in vivo, barnyard grass (Echinochloa crus-galli)
Outline: as §4

[21] = system: wild oat; assay: Test Example 5: herbicidal effect by foliage application, plastic box (Table 20, symbol I); type: in vivo, wild oat (Avena fatua)
Outline: as §4

[22] = system: blackgrass; assay: Test Example 5: herbicidal effect by foliage application, plastic box (Table 20, symbol J); type: in vivo, blackgrass (Alopecurus myosuroides)
Outline: as §4

[23] = system: Italian ryegrass; assay: Test Example 5: herbicidal effect by foliage application, plastic box (Table 20, symbol K); type: in vivo, Italian ryegrass (Lolium multiflorum)
Outline: as §4

[24] = system: windgrass; assay: Test Example 5: herbicidal effect by foliage application, plastic box (Table 20, symbol L); type: in vivo, windgrass (Apera spica-venti); conditions: foliage application, AAH 320 g/ha, three weeks after application
Outline: as §4

[25] = system: velvetleaf; assay: Test Example 5: herbicidal effect by foliage application, plastic box (Table 20, symbol M); type: in vivo, velvetleaf (Abutilon theophrasti)
Outline: as §4

[26] = system: redroot pigweed; assay: Test Example 5: herbicidal effect by foliage application, plastic box (Table 20, symbol N); type: in vivo, redroot pigweed (Amaranthus retroflexus)
Outline: as §4

[27] = system: lambsquarters; assay: Test Example 5: herbicidal effect by foliage application, plastic box (Table 20, symbol O); type: in vivo, lambsquarters (Chenopodium album)
Outline: as §4

[28] = system: chickweed; assay: Test Example 5: herbicidal effect by foliage application, plastic box (Table 20, symbol P); type: in vivo, common chickweed (Stellaria media)
Outline: as §4

[29] = system: persian speedwell; assay: Test Example 5: herbicidal effect by foliage application, plastic box (Table 20, symbol R); type: in vivo, Persian speedwell (Veronica persica)
Outline: as §4

[30] = system: rice flat sedge; assay: Test Example 3: herbicidal effect by foliage application, Wagner pot (Table 18, symbol E); type: in vivo, rice flat sedge (Cyperus iria); conditions: 320 g/ha
Outline: as §2

[31] = foliage application, AAH 320 g/ha, three weeks after application
[32] = amount of applied herbicide 320 g/ha
[33] = 320 g/ha, foliage application after 14-day growth, evaluated three weeks after application

SMILES: Cc1nn(C)c(=O)c(-c2c(-c3ccc(OS(C)(=O)=O)cc3)sc3ccccc23)c1O [1-146]
- Herbicidal effect on A: late watergrass (grade 0-5) ([1]; 320 g/ha applied herbicide): 3 (Herbicidal rate of 40% or more and less than 70%)
- Herbicidal effect on B: Japanese bulrush (grade 0-5) ([2]; 320 g/ha applied herbicide): 0 (Herbicidal rate of 5% or less (almost no effect))
- Herbicidal effect on C: oval-leafed pondweed (grade 0-5) ([3]; 320 g/ha applied herbicide): 0 (Herbicidal rate of 5% or less (almost no effect))
- herbicidal effect on H (barnyard grass), rating 0-5 [4]: 5 (Herbicidal rate of 90% or more (almost completely withered))
- herbicidal effect on D (Chinese sprangletop), rating 0-5 [5]: 2 (Herbicidal rate of 20% or more and less than 40%)
- F: southern crabgrass, herbicidal effect rating ([6]; AAH 320 g/ha): 4 (Herbicidal rate of 70% or more and less than 90%)
- G: green foxtail, herbicidal effect rating ([7]; AAH 320 g/ha): 5 (Herbicidal rate of 90% or more (almost completely withered))
- H: barnyard grass, herbicidal effect rating ([8]; AAH 320 g/ha): 5 (Herbicidal rate of 90% or more (almost completely withered))
- I: wild oat, herbicidal effect rating ([9]; AAH 320 g/ha): 0 (Herbicidal rate of 5% or less (almost no effect))
- J: blackgrass, herbicidal effect rating ([10]; AAH 320 g/ha): 0 (Herbicidal rate of 5% or less (almost no effect))
- K: Italian ryegrass, herbicidal effect rating ([11]; AAH 320 g/ha): 4 (Herbicidal rate of 70% or more and less than 90%)
- L: windgrass, herbicidal effect rating ([12]; AAH 320 g/ha): 0 (Herbicidal rate of 5% or less (almost no effect))
- M: velvetleaf, herbicidal effect rating ([13]; AAH 320 g/ha): 5 (Herbicidal rate of 90% or more (almost completely withered))
- N: redroot pigweed, herbicidal effect rating ([14]; AAH 320 g/ha): 5 (Herbicidal rate of 90% or more (almost completely withered))
- O: lambsquarters, herbicidal effect rating ([15]; AAH 320 g/ha): 5 (Herbicidal rate of 90% or more (almost completely withered))
- P: chickweed, herbicidal effect rating ([16]; AAH 320 g/ha): 4 (Herbicidal rate of 70% or more and less than 90%)
- R: persian speedwell, herbicidal effect rating ([17]; AAH 320 g/ha): 5 (Herbicidal rate of 90% or more (almost completely withered))
- F: southern crabgrass, herbicidal effect [18, 31]: 4 (Herbicidal rate of 70% or more and less than 90%)
- G: green foxtail, herbicidal effect [19, 31]: 5 (Herbicidal rate of 90% or more (almost completely withered))
- H: barnyard grass, herbicidal effect [20, 31]: 5 (Herbicidal rate of 90% or more (almost completely withered))
- I: wild oat, herbicidal effect [21, 31]: 0 (Herbicidal rate of 5% or less (almost no effect))
- J: blackgrass, herbicidal effect [22, 31]: 1 (Herbicidal rate of 5% or more and less than 20%)
- K: Italian ryegrass, herbicidal effect [23, 31]: 5 (Herbicidal rate of 90% or more (almost completely withered))
- L: windgrass, herbicidal effect [24]: 0 (Herbicidal rate of 5% or less (almost no effect))
- M: velvetleaf, herbicidal effect [25, 31]: 4 (Herbicidal rate of 70% or more and less than 90%)
- N: redroot pigweed, herbicidal effect [26, 31]: 3 (Herbicidal rate of 40% or more and less than 70%)
- O: lambsquarters, herbicidal effect [27, 31]: 3 (Herbicidal rate of 40% or more and less than 70%)
- P: chickweed, herbicidal effect [28, 31]: 5 (Herbicidal rate of 90% or more (almost completely withered))
- R: persian speedwell, herbicidal effect [29, 31]: 5 (Herbicidal rate of 90% or more (almost completely withered))

SMILES: COc1ccc(-c2sc3c(Cl)cccc3c2-c2c(O)c(C)nn(C)c2=O)cc1 [4-023]
- Herbicidal effect, A: late watergrass [1, 32]: 3 (Herbicidal rate of 40% or more and less than 70%)
- Herbicidal effect, B: Japanese bulrush [2, 32]: 0 (Herbicidal rate of 5% or less (almost no effect))
- Herbicidal effect, C: oval-leafed pondweed [3, 32]: 0 (Herbicidal rate of 5% or less (almost no effect))
- herbicidal effect on barnyard grass (H) [4]: 5 (Herbicidal rate of 90% or more (almost completely withered))
- herbicidal effect on Chinese sprangletop (D) [5]: 3 (Herbicidal rate of 40% or more and less than 70%)
- herbicidal effect on rice flat sedge (E) [30]: 5 (Herbicidal rate of 90% or more (almost completely withered))
- Herbicidal effect by soil treatment, F: southern crabgrass [6, 32]: 0 (Herbicidal rate of 5% or less (almost no effect))
- Herbicidal effect by soil treatment, G: green foxtail [7, 32]: 0 (Herbicidal rate of 5% or less (almost no effect))
- Herbicidal effect by soil treatment, H: barnyard grass [8, 32]: 0 (Herbicidal rate of 5% or less (almost no effect))
- Herbicidal effect by soil treatment, I: wild oat [9, 32]: 0 (Herbicidal rate of 5% or less (almost no effect))
- Herbicidal effect by soil treatment, J: blackgrass [10, 32]: 0 (Herbicidal rate of 5% or less (almost no effect))
- Herbicidal effect by soil treatment, K: Italian ryegrass [11, 32]: 5 (Herbicidal rate of 90% or more (almost completely withered))
- Herbicidal effect by soil treatment, L: windgrass [12, 32]: 0 (Herbicidal rate of 5% or less (almost no effect))
- Herbicidal effect by soil treatment, M: velvetleaf [13, 32]: 0 (Herbicidal rate of 5% or less (almost no effect))
- Herbicidal effect by soil treatment, N: redroot pigweed [14, 32]: 2 (Herbicidal rate of 20% or more and less than 40%)
- Herbicidal effect by soil treatment, O: lambsquarters [15, 32]: 3 (Herbicidal rate of 40% or more and less than 70%)
- Herbicidal effect by soil treatment, P: chickweed [16, 32]: 5 (Herbicidal rate of 90% or more (almost completely withered))
- Herbicidal effect by soil treatment, R: persian speedwell [17, 32]: 0 (Herbicidal rate of 5% or less (almost no effect))
- herbicidal effect on F: southern crabgrass (evaluation grade 0-5) [18, 33]: 0 (Herbicidal rate of 5% or less (almost no effect))
- herbicidal effect on G: green foxtail (evaluation grade 0-5) [19, 33]: 1 (Herbicidal rate of 5% or more and less than 20%)
- herbicidal effect on H: barnyard grass (evaluation grade 0-5) [20, 33]: 2 (Herbicidal rate of 20% or more and less than 40%)
- herbicidal effect on I: wild oat (evaluation grade 0-5) [21, 33]: 0 (Herbicidal rate of 5% or less (almost no effect))
- herbicidal effect on J: blackgrass (evaluation grade 0-5) [22, 33]: 0 (Herbicidal rate of 5% or less (almost no effect))
- herbicidal effect on K: Italian ryegrass (evaluation grade 0-5) [23, 33]: 5 (Herbicidal rate of 90% or more (almost completely withered))
- herbicidal effect on M: velvetleaf (evaluation grade 0-5) [25, 33]: 3 (Herbicidal rate of 40% or more and less than 70%)
- herbicidal effect on N: redroot pigweed (evaluation grade 0-5) [26, 33]: 1 (Herbicidal rate of 5% or more and less than 20%)
- herbicidal effect on O: lambsquarters (evaluation grade 0-5) [27, 33]: 2 (Herbicidal rate of 20% or more and less than 40%)
- herbicidal effect on P: chickweed (evaluation grade 0-5) [28, 33]: 5 (Herbicidal rate of 90% or more (almost completely withered))
- herbicidal effect on R: persian speedwell (evaluation grade 0-5) [29, 33]: 0 (Herbicidal rate of 5% or less (almost no effect))
